These are literature values, as cited in PMC4110205 (Toxicology and applied pharmacology, 2014).

A word on the Km: it is the substrate concentration at which the rate is half of its maximum. Broadly, the kcat is the maximal rate divided by the concentration of active sites.

Each structure is given as a SMILES string.

In the data set the target is T1, hFMO2.1 (Homo sapiens, UniProt Q99518).
T1 sequence (Q99518 1-535): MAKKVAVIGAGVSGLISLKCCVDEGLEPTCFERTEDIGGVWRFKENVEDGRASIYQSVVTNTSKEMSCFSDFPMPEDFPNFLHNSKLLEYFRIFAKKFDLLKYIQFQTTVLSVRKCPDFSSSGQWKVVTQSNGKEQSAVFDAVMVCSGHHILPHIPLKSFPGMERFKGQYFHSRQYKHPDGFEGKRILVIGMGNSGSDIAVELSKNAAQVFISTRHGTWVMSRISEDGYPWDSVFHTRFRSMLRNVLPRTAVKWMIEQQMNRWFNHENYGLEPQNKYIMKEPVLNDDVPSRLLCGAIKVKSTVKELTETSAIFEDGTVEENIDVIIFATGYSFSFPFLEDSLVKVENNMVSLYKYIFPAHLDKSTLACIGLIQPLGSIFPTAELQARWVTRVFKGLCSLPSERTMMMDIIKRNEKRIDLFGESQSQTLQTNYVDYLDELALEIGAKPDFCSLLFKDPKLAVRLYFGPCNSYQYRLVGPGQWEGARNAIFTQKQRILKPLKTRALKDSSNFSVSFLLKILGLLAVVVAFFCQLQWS
To be noted: expressed hFMO2; ref Henderson et al., 2004.
Consider `NC(=S)Nc1cccc2ccccc12` [α-naphthylthiourea], for which the Km was 42 µM and the kcat was 0.55 s⁻¹.

`S=C1NCCN1` [ethylenethiourea]: the Michaelis-Menten constant (Km) was 14 µM and the catalytic constant (kcat) was 0.8 s⁻¹.

`NC(N)=S` [Thiourea]: the Michaelis constant (Km) was 27 µM and the kcat is 0.85 s⁻¹.

As for `NC(=S)Nc1ccccc1` [phenylthiourea], the Michaelis-Menten constant (Km) was 29 µM and the catalytic constant (kcat) is 0.4 s⁻¹.
